Patent publication US9028855B2, “Plant additives and uses thereof to modulate the synthesis of membrane glycerolipids in planta” (Commissariat a l'Energie Atomique et aux Energies …, priority 2009, dated 2015)
Entries after “also recorded” stand apart in the source; their conditions may differ.

Tests used:
A. thaliana = assay: Root growth (primary root) of plants on high phosphate medium supplied with compound; format: in vivo; details: expressed as a percentage having regard to a control; +P control 100, −P 20
From the text: In response to phosphate starvation, the primary root growth is inhibited (Svistoonoff et al., 2007).

wild type seedlings = assay: Anthocyanins content (spectrophotometric); format: in vivo, A. thaliana; design: key to Antho: anthocyanin content as A530 - 2.2*A652; details: accumulation of anthocyanes; +P control 46, −P 1008
Procedure: Anthocyanins were extracted with propanol:HCl:H2O (81:1:18) for 5 min at room temperature and 3 min at 100° C. Samples are centrifuged for 10 min at 4° C. Supernatants were collected and absorption measured at 530 nm and […]. Anthocyanin content was calculated as A530-2.2A652 (Lange et al., 1971).

phopholipase Dz2 = assay: PLDz::GUS, follow-up of the expression of the gene encoding phospholipase Dz2 (GUS staining); format: in vivo, A. thaliana; details: summary over PLDz::GUS and MGD3::GUS; specific = without impact on growth or PHT1;4
Procedure: pPLDZ2:GUS-GFP cell line is as described by Cruz-Ramirez et al. (Cruz-Ramirez et al., 2006), and expressed a GUS-GFP fusion under the control of the pldz2 promoter. […] Plants were examined for GUS activity by dipping the samples in a GUS staining solution (50 mM sodium phosphate buffer pH 7.0; 0.01% Triton X-100, 1 mM K3Fe(CN)6, 1 mM K4Fe(CN)6, 1 mg/ml 5-dromo-4-chloro-3-indolyl (3-D-GLUCURONIDE (X-Gluc A) and incubated at 37° C. over-night. After staining, the plants were fixed 2 hours in 50 mM sodium phosphate buffer pH 7.0; 1% glutaraldehyde; 4% formaldehyde. In response to phosphate starvation, the lipid metabolism is modified (Benning and Ohta, 2005). Plants preferentially synthesize sulpho- and galacto-lipids instead of phospholipids. Several enzymes are involved in this remobilisation.

Compound | Root Growth (A. thaliana) | Antho (wild type seedlings) | lipid metabolism: induction of PLDζ2 and/or MGD3 genes (in words) (phopholipase Dz2)
CC1(C)CC(=O)C(=CNc2ccccc2N)C(=O)C1 [#40] | 85 % of control | 65 | specificity in lipids remodeling
CC1(C)CC(=O)C(=CNc2ccc(N)cc2)C(=O)C1 [#42] | 68 % of control | 226 | impact specifically the lipid metabolism inducing PLD[…]2 and MGD3; also recorded: specificity in lipids remodeling
CC1CC(=O)C(=CNc2ccccc2)C(=O)C1 (stereo not drawn) [#29] | 85 % of control | 146 | impact specifically the lipid metabolism inducing PLD[…]2 and MGD3; also recorded: specificity in lipids remodeling
O=C1CCCC(=O)C1=CNc1ccc(Br)cc1 [#45] | 67 % of control | 106 | impact specifically the lipid metabolism inducing PLD[…]2 and MGD3; also recorded: specificity in lipids remodeling
CC1(C)CC(=O)C(=CNc2ccc3c(c2)OCO3)C(=O)C1 [#30] | 65 % of control | 189 | impact specifically the lipid metabolism inducing PLD[…]2 and MGD3; also recorded: specificity in lipids remodeling
COc1cccc(NC=C2C(=O)CCCC2=O)c1 [#41] | 65 % of control | 111 | impact specifically the lipid metabolism inducing PLD[…]2 and MGD3; also recorded: specificity in lipids remodeling
COc1ccc(NC=C2C(=O)CCCC2=O)cc1 [#46] | 70 % of control | 167 | specificity in lipids remodeling
O=C1CCCC(=O)C1=CNc1ccccc1 [#23] | 100 % of control | 42 | specificity in lipids remodeling
CC1(C)CC(=O)C(=C(S)Nc2ccccc2)C(=O)C1 [#31] | 89 % of control | 62 | impact specifically the lipid metabolism inducing PLD[…]2 and MGD3; also recorded: specificity in lipids remodeling
CC(Nc1ccc(Br)cc1)=C1C(=O)CC(C)(C)CC1=O [#21] | 93 % of control | 146 | impact specifically the lipid metabolism inducing PLD[…]2 and MGD3
